Source: patent US12043612B2, “Methods of manufacturing a bifunctional compound, ultrapure forms of the bifunctional compound, and dosage forms comprising the same” (Arvinas Operations, Inc., priority 2020, dated 2024)

Assay: Exploratory stability study on Compound A drug substance (HPLC, water content, XRPD)
Format: physicochemical
Parameters: Water Content: unit: wt %
Protocol: This is a reverse phase high performance liquid chromatography (HPLC) method devised to determine the assay and impurity profile of Compound A for release and stability testing. The method was qualified for its intended uses. Forced degradation studies were performed and used to qualify this method as stability indicating. The HPLC parameters are listed below in Table 6.
An exploratory stability study on Compound A is on-going. The stability of Compound A will be studied at 5° C., 25° C./60% RH, and 40° C./75% RH with sampling points at 1, 2, 3, and 6 months. Samples will be analyzed using the stability indicating method TEST-05187 (high performance liquid chromatography (HPLC)).
The critical quality attributes of the drug substance Compound A that will be monitored are appearance, purity, assay (wt %), impurities, water content, and x-ray powder diffraction (XRPD). The container and closure system for the stability study consists of double plastic (PE) bags placed inside an high-density polyethylene (HDPE) container.

[1] = Initial Date (about 3 months after date of manufacture)
[2] = Storage at 5° C. +/− 3° C., Initial Date + 1 Month
[3] = Storage at 5° C. +/− 3° C., Initial Date + 2 Months
[4] = Storage at 25° C. ± 2° C./60% RH ± 5%, Initial Date + 1 Month
[5] = Storage at 25° C. ± 2° C./60% RH ± 5%, Initial Date + 2 Months
[6] = Storage at 40° C. ± 2° C./75% RH ± 5%, Initial Date + 1 Month
[7] = Storage at 40° C. ± 2° C./75% RH ± 5%, Initial Date + 2 Months

## N#Cc1ccc(O[C@H]2CC[C@H](NC(=O)c3ccc(N4CCC(CN5CCN(c6cc7c(cc6F)C(=O)N(C6CCC(=O)NC6=O)C7=O)CC5)CC4)nn3)CC2)cc1Cl (stereo partly shown) [Compound A, N-[(1r,4r)-4-(3-chloro-4-cyanophenoxy)cyclohexyl]-6-[4-({4-[2-(2,6-dioxopiperidin-3-yl)-6-fluoro-1,3-dioxo-2,3-dihydro-1H-isoindol-5-yl]piperazin-1-yl}methyl)piperidin-1-yl]pyridazine-3-carboxamide]
At Date of Manufacture
  Appearance: Yellow
  HPLC Assay (wt %): 97.7 wt %
  HPLC Impurities (%) RRT 0.50 (Intermediate 5): 0.06%
  HPLC Impurities (%) RRT 0.89: 0.07%
  HPLC Impurities (%) RRT 0.90: ND (ND = <_0.02%)
  HPLC Impurities (%) RRT 0.92: 0.07%
  HPLC Impurities (%) RRT 0.94: ND (ND = <_0.02%)
  HPLC Impurities (%) RRT 0.96 (Intermediate 2): 0.16%
  HPLC Impurities (%) RRT 1.02: 0.39%
  HPLC Impurities (%) RRT 1.04 (Intermediate 3): 0.12%
  HPLC Impurities (%) RRT 1.05 (Impurity 1): <QL (QL = 0.05%)
  HPLC Impurities (%) RRT 1.07: 0.19%
  HPLC Impurities (%) RRT 1.23: 0.06%
  HPLC Impurities (%) RRT 1.32: ND (ND = <_0.02%)
  HPLC Impurities (%) RRT 1.36 (Intermediate 9): 0.05%
  HPLC Impurities (%) RRT 1.39: 0.67%
  HPLC Impurities (%) RRT 1.54: ND (ND = <_0.02%)
  HPLC Purity (%): 98.0%
  Total Impurities (%): 2.0%
  Water Content: 0.27
  Water Content (wt %): 0.27 wt %
  XRPD: Crystalline
[1]
  Appearance: Yellow
  HPLC Assay (wt %): 99.5 wt %
  HPLC Impurities (%) RRT 0.50 (Intermediate 5): 0.06%
  HPLC Impurities (%) RRT 0.89: 0.08%
  HPLC Impurities (%) RRT 0.90: <QL (QL = 0.05%)
  HPLC Impurities (%) RRT 0.92: 0.06%
  HPLC Impurities (%) RRT 0.94: ND (ND = <_0.02%)
  HPLC Impurities (%) RRT 0.96 (Intermediate 2): 0.18%
  HPLC Impurities (%) RRT 1.02: 0.38%
  HPLC Impurities (%) RRT 1.04 (Intermediate 3): 0.11%
  HPLC Impurities (%) RRT 1.05 (Impurity 1): ND (ND = <_0.02%)
  HPLC Impurities (%) RRT 1.07: 0.15%
  HPLC Impurities (%) RRT 1.23: 0.06%
  HPLC Impurities (%) RRT 1.32: ND (ND = <_0.02%)
  HPLC Impurities (%) RRT 1.36 (Intermediate 9): ND (ND = <_0.02%)
  HPLC Impurities (%) RRT 1.39: 0.45%
  HPLC Impurities (%) RRT 1.54: <QL (QL = 0.05%)
  HPLC Purity (%): 98.4%
  Total Impurities (%): 1.3%
  Water Content: 0.86
  Water Content (wt %): 0.86 wt %
  XRPD: Crystalline
[2]
  Appearance: Yellow
  HPLC Assay (wt %): 97.4 wt %
  HPLC Impurities (%) RRT 0.50 (Intermediate 5): 0.05%
  HPLC Impurities (%) RRT 0.89: 0.07%
  HPLC Impurities (%) RRT 0.90: <QL (QL = 0.05%)
  HPLC Impurities (%) RRT 0.92: <QL (QL = 0.05%)
  HPLC Impurities (%) RRT 0.94: ND (ND = <_0.02%)
  HPLC Impurities (%) RRT 0.96 (Intermediate 2): 0.18%
  HPLC Impurities (%) RRT 1.02: 0.33%
  HPLC Impurities (%) RRT 1.04 (Intermediate 3): 0.09%
  HPLC Impurities (%) RRT 1.05 (Impurity 1): ND (ND = <_0.02%)
  HPLC Impurities (%) RRT 1.07: 0.15%
  HPLC Impurities (%) RRT 1.23: 0.05%
  HPLC Impurities (%) RRT 1.32: ND (ND = <_0.02%)
  HPLC Impurities (%) RRT 1.36 (Intermediate 9): <QL (QL = 0.05%)
  HPLC Impurities (%) RRT 1.39: 0.58%
  HPLC Impurities (%) RRT 1.54: <QL (QL = 0.05%)
  HPLC Purity (%): 98.4%
  Total Impurities (%): 1.5%
  Water Content (wt %): 0.85 wt %
  XRPD: Crystalline
[3]
  Appearance: Yellow
  HPLC Assay (wt %): 97.4 wt %
  HPLC Impurities (%) RRT 0.50 (Intermediate 5): 0.05%
  HPLC Impurities (%) RRT 0.89: 0.07%
  HPLC Impurities (%) RRT 0.90: <QL (QL = 0.05%)
  HPLC Impurities (%) RRT 0.92: 0.06%
  HPLC Impurities (%) RRT 0.94: <QL (QL = 0.05%)
  HPLC Impurities (%) RRT 0.96 (Intermediate 2): 0.17%
  HPLC Impurities (%) RRT 1.02: 0.29%
  HPLC Impurities (%) RRT 1.04 (Intermediate 3): <QL (QL = 0.05%)
  HPLC Impurities (%) RRT 1.05 (Impurity 1): ND (ND = <_0.02%)
  HPLC Impurities (%) RRT 1.07: 0.15%
  HPLC Impurities (%) RRT 1.23: <QL (QL = 0.05%)
  HPLC Impurities (%) RRT 1.32: 0.05%
  HPLC Impurities (%) RRT 1.36 (Intermediate 9): <QL (QL = 0.05%)
  HPLC Impurities (%) RRT 1.39: 0.61%
  HPLC Impurities (%) RRT 1.54: <QL (QL = 0.05%)
  HPLC Purity (%): 98.4%
  Total Impurities (%): 1.5%
  Water Content (wt %): 1.0 wt %
  XRPD: Crystalline
[4]
  Appearance: Yellow
  HPLC Assay (wt %): 97.3 wt %
  HPLC Impurities (%) RRT 0.50 (Intermediate 5): 0.05%
  HPLC Impurities (%) RRT 0.89: 0.07%
  HPLC Impurities (%) RRT 0.90: <QL (QL = 0.05%)
  HPLC Impurities (%) RRT 0.92: 0.07%
  HPLC Impurities (%) RRT 0.94: ND (ND = <0.02%)
  HPLC Impurities (%) RRT 0.96 (Intermediate 2): 0.18%
  HPLC Impurities (%) RRT 1.02: 0.34%
  HPLC Impurities (%) RRT 1.04 (Intermediate 3): 0.07%
  HPLC Impurities (%) RRT 1.05 (Impurity 1): ND (ND = <0.02%)
  HPLC Impurities (%) RRT 1.07: 0.15%
  HPLC Impurities (%) RRT 1.23: 0.05%
  HPLC Impurities (%) RRT 1.32: ND (ND = <0.02%)
  HPLC Impurities (%) RRT 1.36 (Intermediate 9): <QL (QL = 0.05%)
  HPLC Impurities (%) RRT 1.39: 0.57%
  HPLC Impurities (%) RRT 1.54: <QL (QL = 0.05%)
  HPLC Purity (%): 98.3%
  Total Impurities (%): 1.6%
  Water Content: 0.93
  XRPD: Crystalline
[5]
  Appearance: Yellow
  HPLC Assay (wt %): 97.5 wt %
  HPLC Impurities (%) RRT 0.50 (Intermediate 5): 0.05%
  HPLC Impurities (%) RRT 0.89: 0.07%
  HPLC Impurities (%) RRT 0.90: <QL (QL = 0.05%)
  HPLC Impurities (%) RRT 0.92: 0.06%
  HPLC Impurities (%) RRT 0.94: <QL (QL = 0.05%)
  HPLC Impurities (%) RRT 0.96 (Intermediate 2): 0.17%
  HPLC Impurities (%) RRT 1.02: 0.28%
  HPLC Impurities (%) RRT 1.05 (Impurity 1): ND (ND = <0.02%)
  HPLC Impurities (%) RRT 1.07: 0.15%
  HPLC Impurities (%) RRT 1.23: 0.05%
  HPLC Impurities (%) RRT 1.32: <QL (QL = 0.05%)
  HPLC Impurities (%) RRT 1.36 (Intermediate 9): ND (ND = <0.02%)
  HPLC Impurities (%) RRT 1.39: 0.65%
  HPLC Impurities (%) RRT 1.54: <QL (QL = 0.05%)
  HPLC Purity (%): 98.3%
  Total Impurities (%): 1.5%
  Water Content: 1.2
  XRPD: Crystalline
[6]
  Appearance: Yellow
  HPLC Assay (wt %): 97.3 wt %
  HPLC Impurities (%) RRT 0.50 (Intermediate 5): 0.05%
  HPLC Impurities (%) RRT 0.89: 0.06%
  HPLC Impurities (%) RRT 0.90: <QL (QL = 0.05%)
  HPLC Impurities (%) RRT 0.92: 0.07%
  HPLC Impurities (%) RRT 0.94: ND (ND = <0.02%)
  HPLC Impurities (%) RRT 0.96 (Intermediate 2): 0.18%
  HPLC Impurities (%) RRT 1.02: 0.34%
  HPLC Impurities (%) RRT 1.04 (Intermediate 3): 0.08%
  HPLC Impurities (%) RRT 1.05 (Impurity 1): ND (ND = <0.02%)
  HPLC Impurities (%) RRT 1.07: 0.14%
  HPLC Impurities (%) RRT 1.23: 0.05%
  HPLC Impurities (%) RRT 1.32: ND (ND = <0.02%)
  HPLC Impurities (%) RRT 1.36 (Intermediate 9): <QL (QL = 0.05%)
  HPLC Impurities (%) RRT 1.39: 0.58%
  HPLC Impurities (%) RRT 1.54: <QL (QL = 0.05%)
  HPLC Purity (%): 98.3%
  Total Impurities (%): 1.6%
  Water Content: 1.0
  XRPD: Crystalline
[7]
  Appearance: Yellow
  HPLC Assay (wt %): 97.2 wt %
  HPLC Impurities (%) RRT 0.50 (Intermediate 5): 0.06%
  HPLC Impurities (%) RRT 0.89: 0.06%
  HPLC Impurities (%) RRT 0.90: <QL (QL = 0.05%)
  HPLC Impurities (%) RRT 0.92: 0.07%
  HPLC Impurities (%) RRT 0.94: <QL (QL = 0.05%)
  HPLC Impurities (%) RRT 0.96 (Intermediate 2): 0.18%
  HPLC Impurities (%) RRT 1.02: 0.28%
  HPLC Impurities (%) RRT 1.04 (Intermediate 3): <QL (QL = 0.05%)
  HPLC Impurities (%) RRT 1.05 (Impurity 1): ND (ND = <0.02%)
  HPLC Impurities (%) RRT 1.07: 0.14%
  HPLC Impurities (%) RRT 1.23: 0.06%
  HPLC Impurities (%) RRT 1.32: <QL (QL = 0.05%)
  HPLC Impurities (%) RRT 1.36 (Intermediate 9): ND (ND = <0.02%)
  HPLC Impurities (%) RRT 1.39: 0.63%
  HPLC Impurities (%) RRT 1.54: <QL (QL = 0.05%)
  HPLC Purity (%): 98.3%
  Total Impurities (%): 1.5%
  Water Content: 1.3
  XRPD: Crystalline
After 2 months at all temperature stations
  change in impurities and solid properties: no increase in impurities nor change in solid properties
After 5 months from the date of manufacture
  change in impurities and solid properties: no increase in impurities or change in solid properties
Stability study, all temperature stations
  change in water content: small increase in the water content
